Measurements from PMC6455008, “Methylation at the C-3′ in D-Ring of Strigolactone Analogs Reduces Biological Activity in Root Parasitic Plants and Rice” (Frontiers in Plant Science, 2019).
Like-named read-outs stand apart in the source and are kept apart here.

Assays:
Striga hermonthica = experiment: Striga emergence in pots under greenhouse conditions (suicidal germination, rice host); format: in vivo; settings: formulated 1.0 μM
Protocol: About 10 mg of (ca 4,000) Striga seeds were thoroughly mixed in 2 L of sand and soil mixture (1:1) and added in 3-L perforated plastic pot containing 0.5 L of clean soil in the bottom. Striga seeds were first preconditioned by giving light irrigation and putting pots at 35°C in greenhouse for 10 days. Each pot was sprayed with 20-ml (1.0 μM) formulated SL analogs up to 10 days at 2-day intervals. A light irrigation was given next day of each application to move the compound to Striga seeds and they were allowed to germinate for suicidal death without host for another 1 week. Then, three rice seedlings (5 days old) were planted in the middle of each pot. The rice plants were grown under normal growth condition (30°C, 70% RH) for 8 weeks. Number of emerged Striga plants in each pot were counted.

Striga seeds [1] = experiment: Stability of formulated SL analogs in sand (Striga germination readout); format: physicochemical, Striga hermonthica; settings: 1.0 μM, sand, 30°C, 7 days
Protocol: (§1) The stability of formulated SL analogs was further tested in sand culture. About 1.5 ml of silver sand was added in each of 6 wells of 24-well plates. Then, 800 μl of formulated SL analogs (1.0 μM) was added in each of the six wells. The plates were sealed firmly with para-film, wrapped in aluminum foil, and placed at 30°C from day 1 to day 7. After 7 days, glass fiber discs containing preconditioned Striga seeds were placed on the top of each of the six wells and incubated in the dark at 30°C for 24 h. The germinated and non-germinated seeds were counted from each disc. In addition, the viability of formulated SL analogs was also tested in aqueous solution for 7 weeks at 30°C. About 800-μl aqueous solution of formulated SL analogs (1.0 μM) was added in a black Eppendorf tube weekly up to 6 weeks and incubated at 30°C. On the seventh week, about 50 μl of each analog was applied on a glass fiber disc containing preconditioned Striga seed and put again in the dark in sealed petri plates at 30°C for 24 h. Germinated and non-germinated seeds were counted from each disc.

Striga seeds [2] = experiment: Stability of formulated SL analogs in aqueous solution under storage (Striga germination readout); format: physicochemical, Striga hermonthica; settings: 1.0 μM
Protocol: as §1

S. hermonthica seeds = experiment: Parasitic seed germination bioassay, Striga; format: in vivo, Striga hermonthica; settings: for EC50: Striga hermonthica
Protocol: (§4) Germination activity of SL analogs on S. hermonthica and P. aegyptiaca seeds was tested by following the procedure described before ([Jamil et al., 2012]). The preconditioned Striga and Phelipanche seeds were treated with 50 μl of each SL analog solution at a concentration range (10^−5–10^−12 M). GR24 and sterile MilliQ water were included as positive and negative controls, respectively. The treated seeds were allowed to germinate in the dark for 24 h at 30°C (for Striga) and for 1 week at 25°C (for Phelipanche). The germinated and non-germinated seeds were counted under a binocular microscope, and germination rate (in %) was calculated.
(§5) Collected data were analyzed statistically using statistical software package R (version 3.2.2).

rice d10 mutant = experiment: Rice micro tillering bioassay (d10 mutant, hydroponic); format: in vivo
Protocol: Rice seeds (d10) were sterilized with 2.5% sodium hypochlorite for 15 min. After thorough washing with sterile MilliQ water, the seeds were kept in water for 2 days at 30°C in the dark for imbibition and pre-germination. The pre-germinated seeds were then transferred to moist filter paper in 90-mm petri plates and incubated at 30°C overnight. The plates with germinated seeds were then shifted in a growth cabinet with fluorescent white light (130–180 μM m^−2 s^−1) for 1 week. Seven days-old seedlings were moved to 50-ml falcon tubes (one seedling per tube) containing modified half-strength Hoagland nutrient solution in greenhouse. After 1 week, rice plants were treated with 2.5 μM of each SL analog. Mock and GR24 (2.5 μM) were included as control treatments. Six applications of each SL analog were done two times in a week. After 3 weeks of application, number of tillers per plant, plant height, and fresh biomass were measured at final harvest.

Arabidopsis seedlings [3] = experiment: Arabidopsis lateral root density assay; format: in vivo; settings: Arabidopsis thaliana, compared to control seedlings
Protocol: (§2) The sterilized Arabidopsis seeds were grown in petri plates that were first kept at 4°C in darkness for 3 days. For hypocotyl study, the petri plates were exposed to continuous white light for 24 h, then transferred to continuous monochromatic red light (20 μmol m^−2 s^−1, 22°C) conditions for another 4 days. For lateral root density, the plates were vertically grown at 22°C in Percival incubator under long day conditions (16 h at 22°C/8 h at 16°C day/night, 60% relative humidity, 60–70 μmol m^−2 s^−1 white light) for 8 days. After scanning, the hypocotyl length and number of lateral roots were recorded using publicly available ImageJ software.^1

P. aegyptiaca seeds = experiment: Parasitic seed germination bioassay, Phelipanche; format: in vivo, Phelipanche aegyptiaca
Protocol: as §4, §5

OsD14 = biological target: T1, OsD14 (Oryza sativa subsp. japonica, UniProt Q10QA5); experiment: In vitro YLG hydrolysis competition assay, OsD14; format: biochemical
T1 construct: made in house
T1 sequence (Q10QA5 1-318): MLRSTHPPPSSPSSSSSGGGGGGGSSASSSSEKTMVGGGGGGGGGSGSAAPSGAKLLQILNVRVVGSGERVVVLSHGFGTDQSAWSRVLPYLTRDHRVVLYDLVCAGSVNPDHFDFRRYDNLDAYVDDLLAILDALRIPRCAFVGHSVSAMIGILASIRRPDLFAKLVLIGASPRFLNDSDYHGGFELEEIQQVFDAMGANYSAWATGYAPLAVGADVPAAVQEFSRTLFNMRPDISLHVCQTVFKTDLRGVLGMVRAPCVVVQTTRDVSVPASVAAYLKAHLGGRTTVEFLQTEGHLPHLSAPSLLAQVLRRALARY
Protocol: (§3) Protein expression and purification of ShHTL7 and Oryza sativa D14 (OsD14) was carried out according to the procedure described earlier ([Jamil et al., 2018]). In vitro Yoshimulactone Green (YLG) hydrolysis assays ([Tsuchiya et al., 2015]) were carried out using 3.0 μM of protein ShHTL7 and OsD14 in a reaction buffer (1X PBS buffer, pH 7.3) with 0.1% DMSO at a 100-μl volume on a 96-well black plate (Greiner). For competitive assays, rac-GR24, AR8, MP13, and MP26 (at range between 0.01 and 50 μM) were co-incubated with 1.0 μM of YLG (Tokyo Chemical Industry Co. Ltd., product number E1238) for 60 min at room temperature. Fluorescent intensity was measured by spectraMax i5 (Molecular Devices) at excitation by 480 nm and detection by 520 nm. The change in fluorescence observed over the course of 1 h of YLG in buffer without protein was subtracted from the data collected in presence of protein. IC50 values were calculated by GraphPad (Prism 7).

ShHTL7 = biological target: T2, ShHTL7 (Striga hermonthica, UniProt A0A0M3PNA2); experiment: In vitro YLG hydrolysis competition assay, ShHTL7; format: biochemical
T2 sequence (A0A0M3PNA2 1-271): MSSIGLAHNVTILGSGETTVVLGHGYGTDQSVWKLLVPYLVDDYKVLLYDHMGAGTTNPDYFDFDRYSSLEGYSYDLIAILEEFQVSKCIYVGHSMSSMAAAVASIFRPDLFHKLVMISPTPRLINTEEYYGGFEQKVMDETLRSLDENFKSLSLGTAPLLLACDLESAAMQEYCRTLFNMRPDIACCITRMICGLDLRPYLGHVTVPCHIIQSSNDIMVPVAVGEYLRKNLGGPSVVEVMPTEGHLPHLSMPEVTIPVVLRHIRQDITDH
Protocol: as §3

Arabidopsis seedlings [4] = experiment: Arabidopsis hypocotyl elongation assay; format: in vivo; settings: Arabidopsis thaliana, compared to control seedlings, read-out: inhibition of hypocotyl growth (reduction in hypocotyl length)
Protocol: as §2

SMILES: CC1=C[C@H](O/C=C2/C(=O)O[C@@H]3c4ccccc4C[C@H]23)OC1=O [GR24, reference compound]
- decrease in Striga emergence compared to mock at 10 WAS (Striga hermonthica; 10 weeks after sowing): 82%
- Striga hermonthica emergence, 5 WAS (Striga hermonthica; mean ± SE, n=5, 5 weeks after sowing): 0.0±0.0
- Striga hermonthica emergence, 6 WAS (Striga hermonthica; mean ± SE, n=5, 6 weeks after sowing): 0.0±0.0
- Striga hermonthica emergence, 7 WAS (Striga hermonthica; mean ± SE, n=5, 7 weeks after sowing): 1.0±0.6
- Striga hermonthica emergence, 8 WAS (Striga hermonthica; mean ± SE, n=5, 8 weeks after sowing): 1.6±0.5
- Striga hermonthica emergence, 9 WAS (Striga hermonthica; mean ± SE, n=5, 9 weeks after sowing): 1.6±0.5
- Striga hermonthica emergence, 10 WAS (Striga hermonthica; mean ± SE, n=5, 10 weeks after sowing): 2.4±0.8
- percent decrease in Striga hermonthica emergence over mock, 8 WAS (Striga hermonthica; negative = decrease, 8 WAS): -85%
- percent decrease in Striga hermonthica emergence over mock, 9 WAS (Striga hermonthica; negative = decrease, 9 WAS): -84%
- percent decrease in Striga hermonthica emergence over mock, 10 WAS (Striga hermonthica; negative = decrease, 10 WAS): -82%
- Striga germination rate on seventh day of incubation in sand (Striga seeds [1]): around 20%
- Striga germination rate maintained for 5 weeks of storage (Striga seeds [2]; 30°C, 5 weeks): around 38%
- Striga germination rate after 6 weeks of storage (Striga seeds [2]; 30°C, 6 weeks): 11%
- Striga germination rate before storage (Striga seeds [2]; before storage): 76%
- Striga germination rate (S. hermonthica seeds; 1.0 μM, formulated and non-formulated, 24 h at 30°C): 75%
- EC50 (S. hermonthica seeds; read-out: EC50 Striga seed germination, formulated): 0.44 nM
- EC50 (S. hermonthica seeds; read-out: EC50 Striga seed germination, non-formulated): 1.9 nM
- inhibition at 2.5 µM (rice d10 mutant; Oryza sativa, read-out: tillering inhibition): 76%
- number of tillers per plant (rice d10 mutant; SL-deficient d10 mutant, hydroponic, 2.5 μM, twice a week up to 3 weeks, untreated d10 six tillers): 1.4 tillers per plant
- plant height compared to mock (rice d10 mutant; d10 mutant, 2.5 μM): significant increase in plant height
- inhibition at 1 µM (Arabidopsis seedlings [3]): 53%
- EC50 (P. aegyptiaca seeds; Phelipanche aegyptiaca, read-out: EC50 P. aegyptiaca seed germination, formulated): 9.3 nM
- P. aegyptiaca germination rate (P. aegyptiaca seeds; non-formulated, 1.0 μM, 1 week at 25°C): 75%
- IC50 (OsD14): 1240 ± 90 nM
- IC50 (ShHTL7): 1640 ± 520 nM
- inhibition at 1 µM (Arabidopsis seedlings [4]): 37%
